Here are results for 13 compounds from US12030878B2 (BRISTOL-MYERS SQUIBB COMPANY, priority 2017, dated 2024).

What all share (assay type): cell-based
One experiment addresses T1, human TLR7 (Homo sapiens, UniProt Q9NYK1).
T1 construct: host or cells: HEK-Blue cells
T1 sequence (Q9NYK1 27-1049): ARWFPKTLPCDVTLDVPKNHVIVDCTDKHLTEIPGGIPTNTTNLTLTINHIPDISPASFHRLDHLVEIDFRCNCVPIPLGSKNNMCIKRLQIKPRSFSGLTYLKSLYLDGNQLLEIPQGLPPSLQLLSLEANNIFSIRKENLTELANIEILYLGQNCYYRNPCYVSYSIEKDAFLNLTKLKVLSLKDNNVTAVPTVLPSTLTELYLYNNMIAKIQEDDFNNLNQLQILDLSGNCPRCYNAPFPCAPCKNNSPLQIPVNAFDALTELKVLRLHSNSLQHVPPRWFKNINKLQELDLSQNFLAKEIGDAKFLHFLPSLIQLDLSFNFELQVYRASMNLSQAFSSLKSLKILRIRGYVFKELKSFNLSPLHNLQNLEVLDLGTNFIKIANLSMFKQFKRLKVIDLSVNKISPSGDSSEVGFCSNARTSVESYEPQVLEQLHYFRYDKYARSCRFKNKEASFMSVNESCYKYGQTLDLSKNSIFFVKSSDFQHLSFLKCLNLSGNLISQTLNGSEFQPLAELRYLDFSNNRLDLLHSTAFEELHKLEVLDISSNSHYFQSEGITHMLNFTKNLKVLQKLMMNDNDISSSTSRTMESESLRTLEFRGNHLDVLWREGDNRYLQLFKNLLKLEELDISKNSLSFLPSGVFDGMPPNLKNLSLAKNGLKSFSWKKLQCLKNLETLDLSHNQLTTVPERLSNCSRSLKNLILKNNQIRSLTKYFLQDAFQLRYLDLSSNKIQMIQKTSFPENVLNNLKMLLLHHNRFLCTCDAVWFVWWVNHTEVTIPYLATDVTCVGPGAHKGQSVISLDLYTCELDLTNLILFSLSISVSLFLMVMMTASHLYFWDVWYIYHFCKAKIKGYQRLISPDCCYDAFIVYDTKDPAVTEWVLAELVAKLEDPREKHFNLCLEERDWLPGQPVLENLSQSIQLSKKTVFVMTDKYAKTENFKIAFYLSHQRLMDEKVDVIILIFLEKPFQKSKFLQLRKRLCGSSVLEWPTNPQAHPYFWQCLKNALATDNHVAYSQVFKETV
Nature of the experiment: TLR7 inhibition reporter assay (HEK-Blue SEAP). Conditions: HEK-Blue cells overexpressing human TLR7, stimulated with gardiquimod 7.5 μM, 22 hour incubation. The method, boiled down: (§1)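 Stimulation followed a 30 min room-temperature compound exposure (final 0.05 nM-50 μM): TLR7 cells with 7.5 μM gardiquimod, TLR8 with 15.9 μM R848, TLR9 with 5 nM ODN2006. After 22 h at 37 °C, secreted alkaline phosphatase was detected colorimetrically and inhibition calculated against DMSO and known-inhibitor controls.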
(In general: A reporter such as luciferase makes a cellular process visible.)

For the next experiment, the target named is T2, human TLR8 (Homo sapiens, UniProt Q9NR97).
T2 construct: host or cells: HEK-Blue cells
T2 sequence (Q9NR97 27-1041): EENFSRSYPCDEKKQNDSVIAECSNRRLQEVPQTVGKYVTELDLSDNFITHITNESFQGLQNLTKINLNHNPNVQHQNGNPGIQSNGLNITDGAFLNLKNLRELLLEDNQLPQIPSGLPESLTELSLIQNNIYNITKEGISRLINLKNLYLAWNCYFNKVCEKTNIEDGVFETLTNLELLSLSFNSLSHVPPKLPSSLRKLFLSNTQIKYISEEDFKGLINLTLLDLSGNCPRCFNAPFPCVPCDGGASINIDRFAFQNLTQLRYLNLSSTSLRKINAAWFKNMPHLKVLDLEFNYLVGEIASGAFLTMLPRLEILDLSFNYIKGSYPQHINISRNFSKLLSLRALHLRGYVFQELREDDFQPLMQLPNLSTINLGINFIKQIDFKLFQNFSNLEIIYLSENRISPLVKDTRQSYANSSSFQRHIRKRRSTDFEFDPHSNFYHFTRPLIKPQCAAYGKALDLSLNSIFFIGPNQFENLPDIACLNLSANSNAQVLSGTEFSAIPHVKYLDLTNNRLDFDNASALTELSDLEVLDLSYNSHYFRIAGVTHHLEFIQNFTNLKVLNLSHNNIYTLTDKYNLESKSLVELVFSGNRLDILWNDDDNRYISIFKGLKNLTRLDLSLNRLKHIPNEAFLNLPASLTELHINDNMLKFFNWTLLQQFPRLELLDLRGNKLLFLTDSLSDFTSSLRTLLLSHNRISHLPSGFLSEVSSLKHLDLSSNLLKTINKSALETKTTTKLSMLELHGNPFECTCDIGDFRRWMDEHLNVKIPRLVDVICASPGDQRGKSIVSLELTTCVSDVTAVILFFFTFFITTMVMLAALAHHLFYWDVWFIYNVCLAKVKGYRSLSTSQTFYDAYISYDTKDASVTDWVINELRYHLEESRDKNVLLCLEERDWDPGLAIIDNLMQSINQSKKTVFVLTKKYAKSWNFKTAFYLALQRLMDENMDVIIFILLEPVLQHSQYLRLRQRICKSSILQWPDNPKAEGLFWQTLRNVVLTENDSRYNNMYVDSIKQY
In words: TLR8 inhibition reporter assay (HEK-Blue SEAP). Conditions: HEK-Blue cells overexpressing human TLR8, stimulated with R848 15.9 μM, 22 hour incubation. The gist of the method: as §1

The next experiment concerns the target T3, human TLR9 (Homo sapiens, UniProt Q9NR96).
T3 construct: host or cells: HEK-Blue cells
T3 sequence (Q9NR96 26-1032): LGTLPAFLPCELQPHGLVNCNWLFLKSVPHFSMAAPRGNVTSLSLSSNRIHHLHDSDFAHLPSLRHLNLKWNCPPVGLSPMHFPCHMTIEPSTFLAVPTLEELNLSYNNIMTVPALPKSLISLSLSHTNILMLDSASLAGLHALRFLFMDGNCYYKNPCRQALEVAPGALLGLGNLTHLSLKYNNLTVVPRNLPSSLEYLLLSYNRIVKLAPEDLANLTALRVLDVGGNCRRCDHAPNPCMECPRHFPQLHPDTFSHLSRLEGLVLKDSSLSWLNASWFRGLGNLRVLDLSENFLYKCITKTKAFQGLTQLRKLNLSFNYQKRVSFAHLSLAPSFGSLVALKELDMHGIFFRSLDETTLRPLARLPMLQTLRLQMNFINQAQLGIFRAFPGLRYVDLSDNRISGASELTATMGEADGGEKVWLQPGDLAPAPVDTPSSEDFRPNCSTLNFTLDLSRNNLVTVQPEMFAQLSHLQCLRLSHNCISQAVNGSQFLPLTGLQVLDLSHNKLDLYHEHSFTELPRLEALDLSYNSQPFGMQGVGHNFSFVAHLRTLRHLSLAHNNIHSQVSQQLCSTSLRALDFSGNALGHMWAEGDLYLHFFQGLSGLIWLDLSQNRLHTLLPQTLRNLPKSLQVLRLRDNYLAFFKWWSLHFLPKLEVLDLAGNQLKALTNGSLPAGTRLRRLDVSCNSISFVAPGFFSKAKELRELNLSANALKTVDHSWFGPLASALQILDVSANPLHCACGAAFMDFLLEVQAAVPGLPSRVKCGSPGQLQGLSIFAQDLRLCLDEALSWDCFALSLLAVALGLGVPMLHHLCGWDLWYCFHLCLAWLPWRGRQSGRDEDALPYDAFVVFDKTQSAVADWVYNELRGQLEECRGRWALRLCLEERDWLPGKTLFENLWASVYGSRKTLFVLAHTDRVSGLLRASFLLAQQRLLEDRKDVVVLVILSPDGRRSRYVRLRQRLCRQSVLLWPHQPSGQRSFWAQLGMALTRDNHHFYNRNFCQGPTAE
In words: TLR9 inhibition reporter assay (HEK-Blue SEAP). The following applies: HEK-Blue cells overexpressing human TLR9, stimulated with ODN2006 5 nM, 22 hour incubation. The gist of the method:
as §1

Molecules are shown by their SMILES. Bounds are passed on as bounds.

`Cc1cc(-c2[nH]c3ccc(OCC(=O)N4CCCC5(CNC5)C4)cc3c2C(C)C)ccn1` [Example 140, 2-((3-isopropyl-2-(2-methylpyridin-4-yl)-1H-indol-5-yl)oxy)-1-(2,6-diazaspiro[3.5]nonan-6-yl)ethan-1-one]: the IC50 (in general, the concentration that inhibits the measured activity by half) on human TLR7 was determined as 0.629 µM; at human TLR8, 0.216 µM; on human TLR9, 0.886 µM.
For `Cc1cc(-c2[nH]c3ccc(OCC(=O)N4CC5(CCNCC5)C4)cc3c2C(C)C)ccn1` [Example 141, 2-((3-isopropyl-2-(2-methylpyridin-4-yl)-1H-indol-5-yl)oxy)-1-(2,7-diazaspiro[3.5]nonan-2-yl)ethan-1-one] the same measures were 0.427 µM, 0.186 µM and 0.625 µM.
For `Cc1cc(-c2[nH]c3ccc(OCC(=O)NC4CCC5CNCC54)cc3c2C(C)C)ccn1` (stereo not drawn) [Example 142, 2-((3-isopropyl-2-(2-methylpyridin-4-yl)-1H-indol-5-yl)oxy)-N-(octahydrocyclopenta[c]pyrrol-4-yl)acetamide] the same measures were 0.349 µM, 0.0784 µM and 0.383 µM.
In the case of `Cc1cc(-c2[nH]c3ccc(OCC(=O)N4CCCCC4C4CCNCC4)cc3c2C(C)C)ccn1` (stereo not drawn) [Example 143, 1-([2,4′-bipiperidin]-1-yl)-2-((3-isopropyl-2-(2-methylpyridin-4-yl)-1H-indol-5-yl)oxy)ethan-1-one], the IC50 was determined as 0.33 µM on human TLR7, 0.22 µM on human TLR8 and 0.354 µM against human TLR9.
For `Cc1cc(-c2[nH]c3ccc(OCC(=O)N4CCC5(CCNCC5)C4)cc3c2C(C)C)ccn1` [Example 144, 2-((3-isopropyl-2-(2-methylpyridin-4-yl)-1H-indol-5-yl)oxy)-1-(2,8-diazaspiro[4.5]decan-2-yl)ethan-1-one] the same measures were 0.917 µM, 0.176 µM and 0.296 µM.
Taken in the same sequence, the figures for `Cc1cc(-c2[nH]c3ccc(OCC(=O)N4CC5CNCC5C4)cc3c2C(C)C)ccn1` (stereo not drawn) [Example 145, 1-(hexahydropyrrolo[3,4-c]pyrrol-2(H)-yl)-2-((3-isopropyl-2-(2-methylpyridin-4-yl)-1H-indol-5-yl)oxy)ethan-1-one] were 0.315 µM, 0.137 µM and 0.26 µM.
For `Cc1cc(-c2[nH]c3ccc(OCC(=O)NCCC4CCCNC4)cc3c2C(C)C)ccn1` (stereo not drawn) [Example 146, 2-((3-isopropyl-2-(2-methylpyridin-4-yl)-1H-indol-5-yl)oxy)-N-(2-(piperidin-3-yl)ethyl)acetamide] the same measures were 0.771 µM, 0.0984 µM and 0.937 µM.
In the case of `Cc1cc(-c2[nH]c3ccc(OCC(=O)N4CCC(CN)CC4)cc3c2C(C)C)ccn1` [Example 147, 1-(4-(aminomethyl)piperidin-1-yl)-2-((3-isopropyl-2-(2-methylpyridin-4-yl)-1H-indol-5-yl)oxy)ethan-1-one], the concentration for half-maximal inhibition (IC50) worked out at 1.2 µM on human TLR7, 0.474 µM against human TLR8 and 1.54 µM against human TLR9.
For `Cc1cc(-c2[nH]c3ccc(OCC(=O)N(C)C4CCNCC4)cc3c2C(C)C)ccn1` [Example 148, 2-((3-isopropyl-2-(2-methylpyridin-4-yl)-1H-indol-5-yl)oxy)-N-methyl-N-(piperidin-4-yl) acetamide] the same measures were 0.142 µM, 0.0514 µM and 0.172 µM.
Taken in the same sequence, the figures for `Cc1cc(-c2[nH]c3ccc(OCC(=O)N4CC5CN(C)CC5C4)cc3c2C(C)C)ccn1` (stereo not drawn) [Example 149, 2-((3-isopropyl-2-(2-methylpyridin-4-yl)-1H-indol-5-yl)oxy)-1-(5-methylhexahydropyrrolo[3,4-c]pyrrol-2(1H)-yl)ethan-1-one] were 0.119 µM, 0.0238 µM and 0.41 µM.
Take `COc1ccc(-c2[nH]c3ccc(OCC(=O)NCC(C)(C)O)cc3c2C(C)C)cc1OC` [Example 150, 2-((2-(3,4-dimethoxyphenyl)-3-isopropyl-1H-indol-5-yl)oxy)-N-(2-hydroxy-2-methylpropyl)acetamide]: the values for the IC50 against human TLR7, against human TLR8 and against human TLR9 were 0.302 µM, 0.947 µM and over 50 µM, respectively.
Taken in the same sequence, the figures for `Cc1cc(-c2[nH]c3ccc(OCC(=O)NCC(C)(C)O)cc3c2C(C)C)ccn1` [Example 151, N-(2-hydroxy-2-methylpropyl)-2-((3-isopropyl-2-(2-methylpyridin-4-yl)-1H-indol-5-yl)oxy)acetamide] were 0.404 µM, 0.561 µM and over 50 µM.
Turning to `Cc1cc(-c2[nH]c3ccc(OCC(=O)NC[C@@H](F)C(C)(C)O)cc3c2C(C)C)ccn1` [Example 152, (R)—N-(2-fluoro-3-hydroxy-3-methylbutyl)-2-((3-isopropyl-2-(2-methylpyridin-4-yl)-1H-indol-5-yl)oxy)acetamide], the IC50 against human TLR7 is 1 µM; against human TLR8 it was 0.774 µM; at human TLR9, over 50 µM.
